Reference: patent US9359358B2, “Cyclohexyl azetidine derivatives as JAK inhibitors” (Incyte Holdings Corporation, priority 2011, dated 2016)
Structures can show the parent of a compound that is named as a salt.

How the values were obtained:
[1] = biological target: T1, human JAK1 (Homo sapiens, UniProt P23458); assay: In Vitro JAK Kinase Assay (HTRF, phosphorylation of a biotinylated peptide), JAK1; assay type: biochemical; details: catalytic domain a.a. 837-1142, assay of Example A
T1 construct: human JAK1 (a.a. 837-1142); His tag (N); made in house; host or cells: insect cells (baculovirus)
T1 sequence (P23458 849-1154): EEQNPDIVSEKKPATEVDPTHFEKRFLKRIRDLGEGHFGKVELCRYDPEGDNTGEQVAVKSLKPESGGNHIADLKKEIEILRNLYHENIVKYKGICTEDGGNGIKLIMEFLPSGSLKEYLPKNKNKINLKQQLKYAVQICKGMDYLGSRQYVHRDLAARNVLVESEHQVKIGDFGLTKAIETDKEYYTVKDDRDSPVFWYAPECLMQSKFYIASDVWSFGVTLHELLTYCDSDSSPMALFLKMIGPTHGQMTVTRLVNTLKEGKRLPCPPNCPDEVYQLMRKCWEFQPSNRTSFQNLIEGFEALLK
Procedure: (§1) The catalytic activity of JAK1, JAK2 or JAK3 was assayed by measuring the phosphorylation of a biotinylated peptide. The phosphorylated peptide was detected by homogenous time resolved fluorescence (HTRF). […] Reactions were carried out at room temperature for 1 hour and then stopped with 20 μL 45 mM EDTA, 300 nM SA-APC, 6 nM Eu-Py20 in assay buffer (Perkin Elmer, Boston, Mass.). Binding to the Europium labeled antibody took place for 40 minutes and HTRF signal was measured on a Fusion plate reader (Perkin Elmer, Boston, Mass.).

[2] = biological target: T2, human JAK2 (Homo sapiens, UniProt O60674); assay: In Vitro JAK Kinase Assay (HTRF, phosphorylation of a biotinylated peptide), JAK2; assay type: biochemical; details: assay of Example A
T2 construct: JAK2 (a.a. 828-1132); His tag (N); made in house; host or cells: insect cells (baculovirus)
T2 sequence (O60674 828-1132): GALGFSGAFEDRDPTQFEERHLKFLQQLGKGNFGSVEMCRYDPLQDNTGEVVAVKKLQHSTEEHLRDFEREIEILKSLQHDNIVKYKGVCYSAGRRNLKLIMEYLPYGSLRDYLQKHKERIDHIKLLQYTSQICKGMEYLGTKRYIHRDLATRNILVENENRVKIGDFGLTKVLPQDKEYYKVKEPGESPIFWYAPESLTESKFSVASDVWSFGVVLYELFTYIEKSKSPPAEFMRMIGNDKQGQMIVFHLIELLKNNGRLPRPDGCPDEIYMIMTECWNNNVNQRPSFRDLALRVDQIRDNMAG
Procedure: as §1

| IC50 ([1]; Table 4) | JAK2/JAK1 IC50 ratio ([2]; Table 4) | Compound | IC50 ([1]; Table 5) | JAK2/JAK1 IC50 ratio ([2]; Table 5) |
| --- | --- | --- | --- | --- |
| < 10 nM | ≧10 | CC(O)(CO)c1cc(OC2CCC(N3CC(CC#N)(n4cc(-c5ncnc6[nH]ccc56)cn4)C3)CC2)nc(C(F)(F)F)n1 (single isomer, unassigned) [Example 57a, {1-(cis-4-{[6-(1,2-dihydroxy-1-methylethyl)-2-(trifluoromethyl)pyrimidin-4-yl]oxy}cyclohexyl)-3-[4-(7H-pyrrolo[2,3-d]pyrimidin-4-yl)-1H-pyrazol-1-yl]azetidin-3-yl}acetonitrile tris(trifluoroacetate) (salt)] |  |  |
| < 10 nM | ≧10 | CC(O)c1cc(OC2CCC(N3CC(CC#N)(n4cc(-c5ncnc6[nH]ccc56)cn4)C3)CC2)nc(C(F)(F)F)n1 (single isomer, unassigned) [Example 58, {1-(cis-4-{[6-(1-hydroxyethyl)-2-(trifluoromethyl)pyrimidin-4-yl]oxy}cyclohexyl)-3-[4-(7H-pyrrolo[2,3-d]pyrimidin-4-yl)-1H-pyrazol-1-yl]azetidin-3-yl}acetonitrile tris(trifluoroacetate) (salt)] |  |  |
| < 10 nM | ≧10 | CC(O)c1cc(OC2CCC(N3CC(CC#N)(n4cc(-c5ncnc6[nH]ccc56)cn4)C3)CC2)nc(C(F)(F)F)n1 (single isomer, unassigned) [Example 58a, {1-(cis-4-{[6-(1-hydroxyethyl)-2-(trifluoromethyl)pyrimidin-4-yl]oxy}cyclohexyl)-3-[4-(7H-pyrrolo[2,3-d]pyrimidin-4-yl)-1H-pyrazol-1-yl]azetidin-3-yl}acetonitrile tris(trifluoroacetate) (salt)] |  |  |
| < 10 nM | ≧10 | CC(CO)c1cc(OC2CCC(N3CC(CC#N)(n4cc(-c5ncnc6[nH]ccc56)cn4)C3)CC2)nc(C(F)(F)F)n1 (single isomer, unassigned) [Example 59, {1-(cis-4-{[6-(2-hydroxy-1-methylethyl)-2-(trifluoromethyl)pyrimidin-4-yl]oxy}cyclohexyl)-3-[4-(7H-pyrrolo[2,3-d]pyrimidin-4-yl)-1H-pyrazol-1-yl]azetidin-3-yl}acetonitrile bis(trifluoroacetate) (salt)] |  |  |
| < 10 nM | ≧10 | CC(CO)c1cc(OC2CCC(N3CC(CC#N)(n4cc(-c5ncnc6[nH]ccc56)cn4)C3)CC2)nc(C(F)(F)F)n1 (single isomer, unassigned) [Example 59a, {1-(cis-4-{[6-(2-hydroxy-1-methylethyl)-2-(trifluoromethyl)pyrimidin-4-yl]oxy}cyclohexyl)-3-[4-(7H-pyrrolo[2,3-d]pyrimidin-4-yl)-1H-pyrazol-1-yl]azetidin-3-yl}acetonitrile bis(trifluoroacetate) (salt)] |  |  |
| < 10 nM | ≧10 | N#CCC1(n2cc(-c3ncnc4[nH]ccc34)cn2)CN([C@H]2CC[C@@H](Oc3cc(CO)nc(C(F)(F)F)n3)CC2)C1 [Example 2, {1-(cis-4-{[6-(Hydroxymethyl)-2-(trifluoromethyl)pyrimidin-4-yl]oxy}cyclohexyl)-3-[4-(7H-pyrrolo[2,3-d]pyrimidin-4-yl)-1H-pyrazol-1-yl]azetidin-3-yl}acetonitrile bis(trifluoroacetate)] |  |  |
| < 10 nM | ≧10 | N#CCC1(n2cc(-c3ncnc4[nH]ccc34)cn2)CN([C@H]2CC[C@@H](Oc3cc(CN)nc(C(F)(F)F)n3)CC2)C1 [Example 3, {1-(cis-4-{[6-(Aminomethyl)-2-(trifluoromethyl)pyrimidin-4-yl]oxy}cyclohexyl)-3-[4-(7H-pyrrolo[2,3-d]pyrimidin-4-yl)-1H-pyrazol-1-yl]azetidin-3-yl}acetonitrile tetrakis(trifluoroacetate)] |  |  |
| < 10 nM | ≧10 | CNCc1cc(O[C@H]2CC[C@@H](N3CC(CC#N)(n4cc(-c5ncnc6[nH]ccc56)cn4)C3)CC2)nc(C(F)(F)F)n1 [Example 4, {1-(cis-4-{[6-[(Methylamino)methyl]-2-(trifluoromethyl)pyrimidin-4-yl]oxy}cyclohexyl)-3-[4-(7H-pyrrolo[2,3-d]pyrimidin-4-yl)-1H-pyrazol-1-yl]azetidin-3-yl}acetonitrile tris(trifluoroacetate)] |  |  |
| < 10 nM |  | CC(C)CNCc1cc(O[C@H]2CC[C@@H](N3CC(CC#N)(n4cc(-c5ncnc6[nH]ccc56)cn4)C3)CC2)nc(C(F)(F)F)n1 [Example 35, {1-(cis-4-{[6-[(isobutylamino)methyl]-2-(trifluoromethyl)pyrimidin-4-yl]oxy}cyclohexyl)-3-[4-(7H-pyrrolo[2,3-d]pyrimidin-4-yl)-1H-pyrazol-1-yl]azetidin-3-yl}acetonitrile tris(trifluoroacetate)] |  |  |

Continued, compound first:

| Compound | IC50 ([1]; Table 4) | JAK2/JAK1 IC50 ratio ([2]; Table 4) | IC50 ([1]; Table 5) | JAK2/JAK1 IC50 ratio ([2]; Table 5) |
| --- | --- | --- | --- | --- |
| 2-(1-(cis-4-((6-(((2-(1H-imidazol-4- yl)ethyl)amino)methyl)-2- (trifluoromethyl)pyrimidin-4- yl)oxy)cyclohexyl)-3-(4-(7H-pyrrolo[2,3- d]pyrimidin-4-yl)-1H-pyrazol-1- yl)azetidin-3-yl)acetonitrile tris(trifluoroacetate) (salt) [Example 39] | < 10 nM | ≧10 |  |  |
| CCC(C)NC(=O)c1cc(O[C@H]2CC[C@@H](N3CC(CC#N)(n4cc(-c5ncnc6[nH]ccc56)cn4)C3)CC2)nc(C(F)(F)F)c1.O=C(O)C(F)(F)F.O=C(O)C(F)(F)F (relative stereo) [Example 88, N-(sec-butyl)-2-[(cis-4-{3-(cyanomethyl)-3-[4-(7H-pyrrolo[2,3-d]pyrimidin-4-yl)-1H-pyrazol-1-yl]azetidin-1-yl}cyclohexyl)oxy]-6-(trifluoromethyl)isonicotinamide bis(trifluoroacetate)] |  |  | < 10 nM | ≧10 |
| CC(O)(CO)c1cc(OC2CCC(N3CC(CC#N)(n4cc(-c5ncnc6[nH]ccc56)cn4)C3)CC2)nc(C(F)(F)F)n1 (single isomer, unassigned) [Example 57, {1-(cis-4-{[6-(1,2-dihydroxy-1-methylethyl)-2-(trifluoromethyl)pyrimidin-4-yl]oxy}cyclohexyl)-3-[4-(7H-pyrrolo[2,3-d]pyrimidin-4-yl)-1H-pyrazol-1-yl]azetidin-3-yl}acetonitrile tris(trifluoroacetate) (salt)] | < 10 nM | ≧10 |  |  |
| N#CCC1(n2cc(-c3ncnc4[nH]ccc34)cn2)CN([C@H]2CC[C@@H](Oc3cc(CN4CCC[C@@H]4CO)cc(C(F)(F)F)n3)CC2)C1.O=C(O)C(F)(F)F.O=C(O)C(F)(F)F.O=C(O)C(F)(F)F (stereo in doubt) [Example 93, {1-(cis-4-{[4-{[(2R)-2-(hydroxymethyl)pyrrolidin-1-yl]methyl}-6-(trifluoromethyl)pyridin-2-yl]oxy}cyclohexyl)-3-[4-(7H-pyrrolo[2,3-d]pyrimidin-4-yl)-1H-pyrazol-1-yl]azetidin-3-yl}acetonitrile tris(trifluoroacetate)] |  |  | < 10 nM | ≧10 |
| N#CCC1(n2cc(-c3ncnc4[nH]ccc34)cn2)CN([C@H]2CC[C@@H](Oc3cc(CN4CCC[C@H]4CO)cc(C(F)(F)F)n3)CC2)C1.O=C(O)C(F)(F)F.O=C(O)C(F)(F)F.O=C(O)C(F)(F)F (stereo in doubt) [Example 94, {1-(cis-4-{[4-{[(2S)-2-(hydroxymethyl)pyrrolidin-1-yl]methyl}-6-(trifluoromethyl)pyridin-2-yl]oxy}cyclohexyl)-3-[4-(7H-pyrrolo[2,3-d]pyrimidin-4-yl)-1H-pyrazol-1-yl]azetidin-3-yl}acetonitrile tris(trifluoroacetate)] |  |  | < 10 nM | ≧10 |
| CN(C)Cc1cc(O[C@H]2CC[C@@H](N3CC(CC#N)(n4cc(-c5ncnc6[nH]ccc56)cn4)C3)CC2)nc(C(F)(F)F)n1 [Example 1, {1-(cis-4-{[6-[(Dimethylamino)methyl]-2-(trifluoromethyl)pyrimidin-4-yl]oxy}cyclohexyl)-3-[4-(7H-pyrrolo[2,3-d]pyrimidin-4-yl)-1H-pyrazol-1-yl]azetidin-3-yl}acetonitrile tetrakis(trifluoroacetate)] | < 10 nM | ≧10 |  |  |
| N#CCC1(n2cc(-c3ncnc4[nH]ccc34)cn2)CN([C@H]2CC[C@@H](Oc3cc(CN4CCCCC4)nc(C(F)(F)F)n3)CC2)C1 [Example 30, {1-(cis-4-{[6-(piperidin-1-ylmethyl)-2-(trifluoromethyl)pyrimidin-4-yl]oxy}cyclohexyl)-3-[4-(7H-pyrrolo[2,3-d]pyrimidin-4-yl)-1H-pyrazol-1-yl]azetidin-3-yl}acetonitrile tris(trifluoroacetate)] | < 10 nM |  |  |  |
| CC(C)(CO)NCc1cc(O[C@H]2CC[C@@H](N3CC(CC#N)(n4cc(-c5ncnc6[nH]ccc56)cn4)C3)CC2)nc(C(F)(F)F)c1 [Example 71, {1-(cis-4-{[4-{[(2-hydroxy-1,1-dimethylethyl)amino]methyl}-6-(trifluoromethyl)pyridin-2-yl]oxy}cyclohexyl)-3-[4-(7H-pyrrolo[2,3-d]pyrimidin-4-yl)-1H-pyrazol-1-yl]azetidin-3-yl}acetonitrile tris(trifluoroacetate) (salt)] |  |  | < 10 nM |  |
| N#CCC1(n2cc(-c3ncnc4[nH]ccc34)cn2)CN([C@H]2CC[C@@H](Oc3cc(CN4CCC(O)CC4)cc(C(F)(F)F)n3)CC2)C1 [Example 97, {1-(cis-4-{[4-[(4-hydroxypiperidin-1-yl)methyl]-6-(trifluoromethyl)pyridin-2-yl]oxy}cyclohexyl)-3-[4-(7H-pyrrolo[2,3-d]pyrimidin-4-yl)-1H-pyrazol-1-yl]azetidin-3-yl}acetonitrile tris(trifluoroacetate)] |  |  | < 10 nM |  |
